In US12570642B2, “GLP-IR modulating compounds” (Gilead Sciences, Inc., priority 2021, dated 2026):

Biological target: GLP-1R (Homo sapiens, UniProt P43220)
Assay: GLP-1R Activation - cAMP Assay
Format: cell-based
Details: cAMP increase in CHO cells stably expressing GLP-1R; each compound run on one of the two cAMP assays (Assay 1 or Assay 2, not specified)
Method in brief: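 CHO cells stably expressing GLP-1R, plated at 1,000 cells/well overnight, then equilibrated 1 h in HBSS with 20 mM Hepes and 0.1% BSA. Agonist added as 10-point dose response for 30 min at 37 °C. cAMP measured by HTRF (Cisbio Gs Dynamic kit); EC50 from sigmoidal fit.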

Sequence of GLP-1R (P43220 24-463): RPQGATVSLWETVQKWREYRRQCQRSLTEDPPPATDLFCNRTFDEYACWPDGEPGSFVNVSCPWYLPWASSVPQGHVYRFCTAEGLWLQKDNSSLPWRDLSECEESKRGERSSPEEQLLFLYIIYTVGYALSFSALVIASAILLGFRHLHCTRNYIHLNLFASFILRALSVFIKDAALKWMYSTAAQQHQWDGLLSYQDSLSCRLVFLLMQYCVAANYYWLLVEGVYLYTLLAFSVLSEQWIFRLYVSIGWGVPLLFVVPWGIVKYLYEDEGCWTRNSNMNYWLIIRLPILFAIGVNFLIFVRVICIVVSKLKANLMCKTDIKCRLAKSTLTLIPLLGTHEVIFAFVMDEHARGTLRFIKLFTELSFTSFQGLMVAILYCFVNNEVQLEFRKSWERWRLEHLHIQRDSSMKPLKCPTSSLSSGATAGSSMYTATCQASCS

| Structure (SMILES) | EC50 |
| --- | --- |
| CC1(C)COC[C@H]1n1c(Cc2cc(F)c(-c3ccnc(OCc4ccc(C(F)(F)F)cc4)n3)cc2F)nc2ccc(C(=O)O)cc21 [Example 537, (S)-2-(2,5-difluoro-4-(2-((4-(trifluoromethyl)benzyl)oxy)pyrimidin-4-yl)benzyl)-1-(4,4-dimethyltetrahydrofuran-3-yl)-1H-benzo[d]imidazole-6-carboxylic acid] | 0.121 nM |
| COC[C@H]1COC[C@H]1n1c(Cc2cc(F)c(-c3ccc(F)c(OCc4ccc(C(F)(F)F)cc4)n3)cc2F)nc2ccc(C(=O)O)cc21 [Example 538, 2-(2,5-difluoro-4-(5-fluoro-6-((4-(trifluoromethyl)benzyl)oxy)pyridin-2-yl)benzyl)-1-((3S,4S)-4-(methoxymethyl)tetrahydrofuran-3-yl)-1H-benzo[d]imidazole-6-carboxylic acid] | 0.109 nM |
| N#Cc1ccc(COc2cccc(-c3cc(F)c(Cc4nc5ccc(C(=O)O)cc5n4[C@@H]4COC[C@@H]4OCC(F)F)cc3F)n2)c(F)c1 [Example 540, 2-(4-(6-((4-cyano-2-fluorobenzyl)oxy)pyridin-2-yl)-2,5-difluorobenzyl)-1-((3R,4R)-4-(2,2-difluoroethoxy)tetrahydrofuran-3-yl)-1H-benzo[d]imidazole-6-carboxylic acid] | 0.052 nM |
| N#Cc1ccc(COc2cccc(-c3cc(F)c(Cc4nc5ccc(C(=O)O)cc5n4[C@H]4COC[C@H]4OCC(F)F)cc3F)n2)c(F)c1 [Example 541, 2-(4-(6-((4-cyano-2-fluorobenzyl)oxy)pyridin-2-yl)-2,5-difluorobenzyl)-1-((3S,4S)-4-(2,2-difluoroethoxy)tetrahydrofuran-3-yl)-1H-benzo[d]imidazole-6-carboxylic acid] | 0.434 nM |
| Cn1cc(-c2ccc(COc3cccc(-c4cc(F)c(Cc5nc6ccc(C(=O)O)cc6n5[C@@H]5COCC5(C)C)cc4F)n3)cn2)nn1 [Example 550, (S)-2-(2,5-difluoro-4-(6-((6-(1-methyl-1H-1,2,3-triazol-4-yl)pyridin-3-yl)methoxy)pyridin-2-yl)benzyl)-1-(4,4-dimethyltetrahydrofuran-3-yl)-1H-benzo[d]imidazole-6-carboxylic acid] | 0.066 nM |

Now those with a lower EC50, led by results:

| EC50 | Structure (SMILES) |
| --- | --- |
| 0.048 nM | COC[C@H]1COC[C@H]1n1c(Cc2cc(F)c(-c3cccc(OCc4ccc(Cl)cc4)n3)cc2F)nc2ccc(C(=O)O)cc21 [Example 544, 2-(4-(6-((4-chlorobenzyl)oxy)pyridin-2-yl)-2,5-difluorobenzyl)-1-((3S,4S)-4-(methoxymethyl)tetrahydrofuran-3-yl)-1H-benzo[d]imidazole-6-carboxylic acid] |
| 0.044 nM | COC[C@H]1COC[C@H]1n1c(Cc2cc(F)c(-c3ccc(F)c(OCc4ccc(Cl)cc4)n3)cc2F)nc2ccc(C(=O)O)cc21 [Example 545, 2-(4-(6-((4-chlorobenzyl)oxy)-5-fluoropyridin-2-yl)-2,5-difluorobenzyl)-1-((3S,4S)-4-(methoxymethyl)tetrahydrofuran-3-yl)-1H-benzo[d]imidazole-6-carboxylic acid] |
| 0.038 nM | COC[C@H]1COC[C@H]1n1c(Cc2cc(F)c(-c3ccc(F)c(OCc4ccc(Cl)cc4F)n3)cc2F)nc2ccc(C(=O)O)cc21 [Example 543, 2-(4-(6-((4-chloro-2-fluorobenzyl)oxy)-5-fluoropyridin-2-yl)-2,5-difluorobenzyl)-1-((3S,4S)-4-(methoxymethyl)tetrahydrofuran-3-yl)-1H-benzo[d]imidazole-6-carboxylic acid] |
| 0.033 nM | COC[C@H]1COC[C@H]1n1c(Cc2cc(F)c(-c3cccc(OCc4ccc(Cl)cc4F)n3)cc2F)nc2ccc(C(=O)O)cc21 [Example 542, 2-(4-(6-((4-chloro-2-fluorobenzyl)oxy)pyridin-2-yl)-2,5-difluorobenzyl)-1-((3S,4S)-4-(methoxymethyl)tetrahydrofuran-3-yl)-1H-benzo[d]imidazole-6-carboxylic acid] |
